26 molecules from patent US7196110B2, “N-substituted tricyclic 3-aminopyrazoles as inhibitors for the treatment of cell proliferative disorders” (Janssen Phamaceutica N.V., priority 2002, dated 2007) can be followed below.

In experiment [1] the target is T1, PDGF-receptor beta enzyme comprising the tyrosine kinase domain (Homo sapiens, UniProt P09619).
T1 construct: from amino acid 545 to 1106 of GenBank Access NO: AAA36427
Description: Inhibition of PDGF-receptor kinase activity (cell-free, PLC1 peptide, 33P Flashplate). The note with it: PDGF-R kinase activity; for inhibition at 10 µM: compound at 10 uM, read-out: Percent Inhibition @ 10 uM; for IC50: read-out: IC50. In kind it is biochemical. In a few lines: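 The IC50 is the inhibitor level halving kinase activity relative to inhibitor-free wells, measured as 33P captured on a streptavidin-bound biotin-PLC1 peptide. The reaction ran 60 min at 30 °C in pH 8 Tris buffer with 1 mM DTT, 5 μM ATP and the 545–1106 kinase-domain enzyme.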

A further experiment has as its target c-Abl kinase (Abelson murine leukemia virus, UniProt P00521). Nature of the experiment: Inhibition of c-Abl kinase activity (cell-free, Abl peptide substrate, 33P Flashplate). In kind it is biochemical. The note with it: IC50 for the c-Abl kinase activity. The method, then: The inhibitory activity of compounds within the scope of the invention on c-Abl kinase activity was tested according to the following procedure.
• 1. 10× Kinase Buffer [500 mM Tris-HCl pH=8, 100 mM MgCl2, 1 mM Na3VO4] • 2. 10 mM DTT [final concentration 1 mM] • 3. 10 mM ATP [final concentration 5 μM] (Gibco, Cat No:18330-019, Carlsbad, Calif.) • 4. ^33P-γ-ATP [NEG-602H; 2000–3000 Ci/mmol], 2 μCuries per well at 10 μCi/μl (0.2 μl/well) • 5. Abl enzyme (New England Biolabs, Cat No. P6050L, Beverly, Mass.) at 100 Units/μl use 10 Units/well (0.1 μl/well) • 6. Enzyme Dilution Buffer [50 mM Tris-HCl pH=8.0, 0.1% BSA] • 7. Wash/Stop Buffer [PBS+100 mM EDTA] • 8. NEN Streptavidin Flashplates (New England Nuclear, Cat No. SMP-103, Boston, Mass.). • 9. Abl Peptide Substrate (Biotin-[…]-amide) at 1 mM in 50 mM Tris-HCL pH=8.0. (Use at 1.0 μM). Procedure
Reagents were first mixed according to the following regimen:
The above reaction mixture was dispensed into each well of a Flashplate at 70 μl/well. To test the effect of a compound on Abl kinase activity, the test compound either in a fixed concentration or in serially diluted concentrations in 100% DMSO was added to appropriate wells at 1 μl/well.
Enzyme Abl was diluted in enzyme dilution buffer as following:
The kinase reaction was started by adding 30 μl of diluted Abl enzyme solution to each well on the Flashplate containing hot ATP (2 μCi/well) and Abl peptide substrate (at 1 μM final conc.), except wells of column 12 rows E and F, which were used to calculate the plate background. The Flashplate was swirled to mix and was incubated at 30° C. for 60 minutes. Then, the reaction mixture was discarded and the Flashplate was washed 3 times each with 200 μL Wash/Stop Buffer. Subsequently, each well on the Flashplate was filled with 200 μl of Wash/Stop buffer. The amount of ^33P retained in each well was measured using a Packard TopCount after the plate was sealed with a transparent plate sealer.
In order to test the potency of inhibition of present compounds, an IC50 for an individual compound was measured using the above procedure. As used herein, the IC50 for c-Abl kinase activity refers to the concentration of an inhibitor at which the activity of c-Abl kinase is reduced by one-half as compared with reactions containing no inhibitor.

T1 sequence (P09619 545-1106): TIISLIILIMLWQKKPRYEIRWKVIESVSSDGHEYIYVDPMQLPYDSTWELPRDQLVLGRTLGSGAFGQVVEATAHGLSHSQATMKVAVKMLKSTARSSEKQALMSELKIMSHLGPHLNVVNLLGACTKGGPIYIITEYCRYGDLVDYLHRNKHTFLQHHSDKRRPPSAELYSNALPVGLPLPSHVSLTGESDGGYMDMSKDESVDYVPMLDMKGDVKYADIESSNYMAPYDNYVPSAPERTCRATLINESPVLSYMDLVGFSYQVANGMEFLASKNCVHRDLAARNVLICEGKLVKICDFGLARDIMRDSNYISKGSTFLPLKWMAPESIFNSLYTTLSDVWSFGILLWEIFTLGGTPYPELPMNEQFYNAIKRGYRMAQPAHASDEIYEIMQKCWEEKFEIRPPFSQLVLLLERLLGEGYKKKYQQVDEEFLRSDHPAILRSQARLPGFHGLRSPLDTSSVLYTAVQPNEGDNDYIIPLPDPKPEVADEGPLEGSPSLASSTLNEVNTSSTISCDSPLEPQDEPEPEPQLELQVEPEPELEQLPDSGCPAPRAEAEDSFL
c-Abl kinase, sequence (P00521 115-385): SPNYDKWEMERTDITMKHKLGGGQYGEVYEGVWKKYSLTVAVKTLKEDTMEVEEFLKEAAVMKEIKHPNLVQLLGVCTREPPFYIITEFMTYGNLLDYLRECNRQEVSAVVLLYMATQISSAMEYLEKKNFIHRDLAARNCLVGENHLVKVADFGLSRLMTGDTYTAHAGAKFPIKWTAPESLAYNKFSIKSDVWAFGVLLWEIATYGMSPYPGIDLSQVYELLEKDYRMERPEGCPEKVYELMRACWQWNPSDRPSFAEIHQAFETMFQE

The inhibition is the relative decrease from the control value, in per cent. By IC50 is commonly meant the concentration that gives 50% inhibition. Turning to `COc1cc2c(cc1OCCCO)Cc1c-2n[nH]c1NCc1c(F)cccc1F` [Compound 449, 3-[3-(2,6-Difluoro-benzylamino)-7-methoxy-2,4-dihydro-indeno[1,2-c]pyrazol-6-yloxy]-propan-1-ol], in experiment [1], the inhibition at 10 µM is 98.5% and the IC50 amounted to 4.1 nM. Moreover, the IC50 at c-Abl kinase turned out to be 23 nM.
For `CCOc1cccc(Nc2[nH]nc3c2Cc2cc(OCC(O)CO)c(OC)cc2-3)c1` (stereo not drawn) [Compound 379, 3-[3-(3-Ethoxy-phenylamino)-7-methoxy-2,4-dihydro-indeno[1,2-c]pyrazol-6-yloxy]-propane-1,2-diol], in experiment [1], the inhibition at 10 µM was found to be 100% and the IC50 worked out at 8.12 nM. Further, the IC50 at c-Abl kinase was 14 nM.
Consider `CCOc1cc2c(cc1OCCCO)-c1n[nH]c(Nc3cccnc3)c1C2` [Compound 371, 3-[6-Ethoxy-3-(pyridin-3-ylamino)-2,4-dihydro-indeno[1,2-c]pyrazol-7-yloxy]-propan-1-ol], for which, in experiment [1], the inhibition at 10 µM turned out to be 100% and the IC50 came to 47.6 nM. In addition, at c-Abl kinase, the IC50 was 905 nM.
For `CCOc1cc2c(cc1OCCCO)Cc1c-2n[nH]c1Nc1cccnc1` [Compound 383, 3-[7-Ethoxy-3-(pyridin-3-ylamino)-2,4-dihydro-indeno[1,2-c]pyrazol-6-yloxy]-propan-1-ol], in experiment [1], the inhibition at 10 µM is 93%. The 50% inhibitory concentration (IC50) is 25.3 nM in experiment [1] and 183 nM on c-Abl kinase.
`COc1cc2c(cc1OCCCO)Cc1c-2n[nH]c1NCc1ccccc1Cl` [Compound 385, 3-[3-(2-Chloro-benzylamino)-7-methoxy-2,4-dihydro-indeno[1,2-c]pyrazol-6-yloxy]-propan-1-ol]: in experiment [1], the inhibition at 10 µM stood at 98.5% and the half-inhibitory concentration (IC50) came out at 4.07 nM. The IC50 at c-Abl kinase worked out at 12 nM.
As to `CCOc1cc2c(cc1OCCCO)Cc1c-2n[nH]c1Nc1cccc(F)c1` [Compound 382, 3-[7-Ethoxy-3-(3-fluoro-phenylamino)-2,4-dihydro-indeno[1,2-c]pyrazol-6-yloxy]-propan-1-ol], in experiment [1], the inhibition at 10 µM stood at 100% and the IC50 is 11.9 nM. Besides, the IC50 at c-Abl kinase was 19 nM.
Regarding `COCCCOc1cc2c(cc1OCCCOC)-c1n[nH]c(Nc3cccc(F)c3)c1C2` [Compound 283, [6,7-Bis-(3-methoxy-propoxy)-2,4-dihydroindeno[1,2-c]pyrazol-3-yl]-(3-fluoro-phenyl)-amine], in experiment [1], the inhibition at 10 µM amounted to 86.5% and the IC50 was found to be 4.36 nM. Moreover, the IC50 at c-Abl kinase worked out at 340 nM.
Regarding `COc1ccc(OC)c(Nc2[nH]nc3c2C(C)c2ccccc2-3)c1` (stereo not drawn) [Compound 110, (2,5-Dimethoxy-phenyl)-(4-methyl-2,4-dihydro-indeno[1,2-c]pyrazol-3-yl)-amine], in experiment [1], the inhibition at 10 µM stood at 80% and the half-inhibitory concentration (IC50) was determined as 189 nM.
Regarding `COc1cc2c(cc1OC)-c1n[nH]c(Nc3cccc(SC(F)(F)F)c3)c1C2` [Compound 211, (6,7-Dimethoxy-2,4-dihydro-indeno[1,2-c]pyrazol-3-yl)-(3-trifluoromethylsulfanyl-phenyl)-amine], in experiment [1], the inhibition at 10 µM is 87% and the concentration for half-maximal inhibition (IC50) turned out to be 50 nM.
As to `COCCCOc1cc2c(cc1OCCCOC)-c1n[nH]c(Nc3cccc(Cl)c3)c1C2` [Compound 285, [6,7-Bis-(3-methoxy-propoxy)-2,4-dihydroindeno[1,2-c]pyrazol-3-yl]-(3-chloro-phenyl)-amine], in experiment [1], the inhibition at 10 µM is 18.5% and the concentration for half-maximal inhibition (IC50) turned out to be 2.78 nM.
With `COc1ccc2c(c1)Cc1c-2n[nH]c1Nc1ccc(C(F)(F)F)cc1` [Compound 89, (6-Methoxy-2,4-dihydro-indeno[1,2-c]pyrazol-3-yl)-(4-trifluoromethyl-phenyl)-amine], in experiment [1], the inhibition at 10 µM is 88% and the half-inhibitory concentration (IC50) stood at 886 nM.
As to `COc1cc2c(cc1OC)-c1c(c(Nc3cccc(F)c3)nn1CC(C)O)C2` (stereo not drawn) [Compound 502, 1-[3-(3-Fluoro-phenylamino)-6,7-dimethoxy-4H-indeno[1,2-c]pyrazol-1-yl]-propan-2-ol], in experiment [1], the inhibition at 10 µM is 60.5% and the IC50 was determined as 54000 nM.
In the same order, the values of `Clc1ccc2c(c1)Cc1c-2n[nH]c1Nc1ccccc1` [Compound 21, (6-Chloro-2,4-dihydro-indeno[1,2-c]pyrazol-3-yl)-phenyl-amine] are 103% and 121 nM.
Turning to `COCn1nc(Nc2cccc(F)c2)c2c1-c1cc(OC)c(OC)cc1C2` [Compound 472, (6,7-Dimethoxy-1-methoxymethyl-1,4-dihydro-indeno[1,2-c]pyrazol-3-yl)-(3-fluoro-phenyl)-amine], the inhibition at 10 µM in experiment [1] amounted to 35%.
Turning to `COc1cc2c(cc1OC)-c1n[nH]c(Nc3ccccc3Cl)c1C2` [Compound 9, (2-Chloro-phenyl)-(6,7-dimethoxy-2,4-dihydro-indeno[1,2-c]pyrazol-3-yl)-amine], the inhibition at 10 µM in experiment [1] is 89%.
Consider `COc1cccc2c1Cc1c-2n[nH]c1Nc1cccnc1` [Compound 146, (5-Methoxy-2,4-dihydro-indeno[1,2-c]pyrazol-3-yl)-pyridin-3-yl-amine], for which, in experiment [1], the inhibition at 10 µM was 78.5% and the IC50 was found to be 160 nM.
The like results for `COc1cc2c(cc1OCC(O)CO)Cc1c-2n[nH]c1NCc1ccccc1F` (stereo not drawn) [Compound 387, 3-[3-(2-Fluoro-benzylamino)-7-methoxy-2,4-dihydro-indeno[1,2-c]pyrazol-6-yloxy]-propane-1,2-diol] were, in that order, 100% and 11.6 nM.
`COc1ccc(Nc2[nH]nc3c2Cc2cc(OC)c(OC)cc2-3)cc1OC` [Compound 49, (6,7-Dimethoxy-2,4-dihydro-indeno[1,2-c]pyrazol-3-yl)-(3,4-dimethoxy-phenyl)-amine]: in experiment [1], the inhibition at 10 µM is 72% and the IC50 worked out at 3070 nM.
`COc1cc2c(cc1OC)-c1n[nH]c(NCc3ccc(C)c(C)c3)c1C2` [Compound 320, (6,7-Dimethoxy-2,4-dihydro-indeno[1,2-c]pyrazol-3-yl)-(3,4-dimethyl-benzyl)-amine]: in experiment [1], the inhibition at 10 µM is 70.5% and the IC50 was found to be 1960 nM.
On to `CCC1c2cc(OC)c(OC)cc2-c2nn(C(=O)COC)c(Nc3cccc(Br)c3)c21` (stereo not drawn) [Compound 515, 1-[3-(3-Bromo-phenylamino)-4-ethyl-6,7-dimethoxy-4H-indeno[1,2-c]pyrazol-2-yl]-2-methoxy-ethanone], for which, in experiment [1], the inhibition at 10 µM worked out at 90% and the concentration for half-maximal inhibition (IC50) was 136 nM.
In the case of `COc1cc2c(cc1OC)-c1n[nH]c(Nc3ccccc3OC(F)(F)F)c1C2` [Compound 15, (6,7-Dimethoxy-2,4-dihydro-indeno[1,2-c]pyrazol-3-yl)-(2-trifluoromethoxy-phenyl)-amine], in experiment [1], the inhibition at 10 µM was 79% and the IC50 came out at 1920 nM.
In the case of `c1cncc(Nc2[nH]nc3c2Cc2sccc2-3)c1` [Compound 402, (5,7-Dihydro-1-thia-4,5-diaza-cyclopenta[a]pentalen-6-yl)-pyridin-3-yl-amine], in experiment [1], the inhibition at 10 µM stood at 90% and the half-maximal inhibitory concentration (IC50) is 196 nM.
In the same order, the values of `COc1cc2c(cc1OC)-c1n[nH]c(Nc3ccccc3C)c1C2` [Compound 31, (6,7-Dimethoxy-2,4-dihydro-indeno[1,2-c]pyrazol-3-yl)-o-tolyl-amine] are 59% and 115 nM.
The like results for `COCn1nc2c(c1Nc1cccc(F)c1)Cc1cc(OC)c(OC)cc1-2` [Compound 475, (6,7-Dimethoxy-2-methoxymethyl-2,4-dihydro-indeno[1,2-c]pyrazol-3-yl)-(3-fluoro-phenyl)-amine] were, in that order, 65.5% and 5030 nM.
Regarding `COc1cc2c(cc1F)Cc1c-2n[nH]c1Nc1cccc(F)c1` [Compound 357, (6-Fluoro-7-methoxy-2,4-dihydro-indeno[1,2-c]pyrazol-3-yl)-(3-fluoro-phenyl)-amine], in experiment [1], the inhibition at 10 µM is 98.5% and the concentration for half-maximal inhibition (IC50) came out at 9.42 nM.
In the same order, the values of `COc1cc2c(cc1OC)-c1c(c(Nc3cccc(F)c3)nn1C(=O)C(C)C)C2` [Compound 431, 1-[3-(3-Fluoro-phenylamino)-6,7-dimethoxy-4H-indeno[1,2-c]pyrazol-1-yl]-2-methyl-propan-1-one] are 84.5% and 444 nM.
